# Reference: patent publication US9439984B2, “Macrocycles” (priority 2012, dated 2016)
# Tests used:
# [1] = Th(IV) spectrophotometric EDTA competition titration (solution thermodynamics); conditions: for pM value (negative logarithm of the free metal concentration): Th(IV); for log β110 (cumulative stability constant) with Th(IV): 25° C., 0.1 M KCl, 5% DMSO, βmlh for mM+lL+hH ⇄ MmLlHh
# Method: All spectrophotometric titrations were carried out with constant stirring and a blanket of argon flow in a jacketed cell connected to a recirculating water bath to maintain the temperature at 25° C. All solutions contained 0.1 M KCl with 5% DMSO (v/v), for consistency with titrations where DMSO was used to ensure solubility. The ligand was added as a 50 mM DMSO stock solution, and Th(IV) as a standardized 10 mM stock solution in nitric acid (79 mM). The HCl and KOH solutions were prepared by dilution of Dilut-It (J. T. Baker) concentrated solutions with degassed Millipore water containing 5% DMSO, to maintain the DMSO concentration constant throughout the titration. The 0.1 M HCl solution was standardized by titration of Tris using bromocresol green as an indicator, and the 0.1 M KOH solution was standardized by titration of KHP using phenolphthalein as an indicator. The glass electrode (Nova Analytics Pinnacle) used for the pH measurements was calibrated by adding 2.000 mL 0.1 M HCl (5% DMSO) to 50.0 mL 0.1 M KCl (5% DMSO), and titrating the solution to pH 11.6 with 0.1 M KOH (5% DMSO). The titration was analyzed using the program GLEE to refine for 8 and the slope. For low pH titrations, a strong acid calibration was performed by titrating 50.0 mL 0.1 M KCl with 5% (v/v) DMSO with 0.1 M HCl to pH 1.8. The data were analyzed in an Excel spreadsheet using the SOLVER function to refine for Σ° and the slope. Metrohm Brinkmann 665 Dosimat instruments were the automated burettes used to dispense the titrant, the pH meter was a Fisher Accumet AR 15, and the UV-Vis spectrometer a Hewlett-Packard 8452A. The computer program Labview was the interface from which all these components were orchestrated to run the titrations. A value of −14.20 was used as the pKw to account for the DMSO content.
# 50 mL solutions (5% DMSO) of 50 μM ligand and 20 equivalents (1 mM) each of MES, HEPES, and CHES, were titrated forward and backward between pH 1.9 and 12.7 with standardized 0.1 M KOH and 0.1 M HCl. The data points were collected at constant increments of 0.05 pH units at pH 1.9-11.5, with an equilibration time of 90-500 sec following titrant additions and a 10 min. delay between successive pH readings. Titration data above pH 11.5 was collected at constant increments of 0.10 pH units, to minimize the time at which the electrode is exposed to strongly basic conditions. All absorbance measurements used in the refinement were no more than 1.0 absorbance units. Spectra from 300-450 nm were analyzed (simultaneously) in the program pHAb. Titrations for constants reported with a standard deviation were performed in triplicate (the standard deviation is between individually refined values for each titration).
# 50 mL solutions of 50 μM ligand, 50 μM Th(IV), and 500 μM EDTA (Sigma Aldrich) or DTPA (Pharm-Eco) were titrated forward and backward with standardized 0.1 M KOH and 0.1 M HCl. The data points were collected at constant increments of 0.05 pH units, with an equilibration time of 90-500 sec following titrant additions and a 20-30 min delay between successive pH readings. All absorbance measurements used in the refinement were no more than 1.1 absorbance units. Spectra from 300-450 nm were analyzed (simultaneously) in the program pHAb. The following values for the log β for the formation of Th hydroxides were included in the refinement: [ThOH]^3+, −2.5; [Th(OH)2]^2+, −6.2; Th(OH)4, −17.4; [Th2(OH)2]^6+, −5.9; [Th2(OH)3]^5+, −6.8; [Th4(OH)8]^8+, −20.4; [Th4(OH)12]^4+, −26.6; [Th4(OH)14]^2+, −36.8; [Th4(OH)15]^+, −36.8. The following stability constants for Th with EDTA (DTPA) were also included: log β011, 10.17 (10.45); log β012, 16.28 (18.98); log β013, 18.96 (23.26); log β014, 22.46 (25.91); log β015, 22.46 (27.73); log β110, 23.2 (28.78); log β111, 25.18 (30.94). Spectra of the free ligand, refined from the ligand titrations, were set constant in the refinement as well.
# [2] = cited from earlier work; for Log K1 with thorium(IV): ligands of increasing denticity; for log β110 with Th: literature constant used for comparison and in the refinement; for log β111 with Th: protonated 1:1 Th complex, constant included in the refinement
# [3] = cited from earlier work; for log β011: m=0, l=1, h=1 (ligand protonation), printed among stability constants for Th; for log β012: m=0, l=1, h=2 (ligand protonation); for log β013: m=0, l=1, h=3 (ligand protonation); for log β014: m=0, l=1, h=4 (ligand protonation); for log β015: m=0, l=1, h=5 (ligand protonation)
# [4] = UV-Vis dye (arsenazo III) displacement kinetic experiments; format: binding; conditions: 100 mM HEPES pH 7.4, 100 mM KCl, 25° C., qualitative
# Method: Spectra were acquired on an Hewlett-Packard 8453 spectrometer at 25° C. The temperature was controlled by a recirculating water bath connected to a jacketed cell holder. Samples were measured in small volume (50 μL) quartz cuvettes with 1 cm path lengths. Solutions were buffered with 100 mM HEPES at pH 7.4 (at 25° C.) and 100 mM KCl. Complexation of the thorium and dye was performed by combining aqueous stock solutions of standardized Th^4+ in nitric acid (77.9 mM HNO3, pH 1.4, 1 mM) and purified dye (1 mM). The solution was let sit on the bench at room temperature for 30 min, diluted in buffer, and let sit at room temperature for an hour. The absorbance was monitored starting from the addition of ligand, as a solution of DMSO ligand stock solution (5 mM) and buffer (equilibrated for 15 min. beforehand). The A vs. t plots were fit with a first-order decay equation in Origin at wavelengths corresponding to the appearance of free dye (550, 560 nm) and the disappearance of thorium-dye complex (614, 669, 700 nm). The reaction with DOTA was refluxed (and stirred with a magnetic stir bar) and performed on a 3 mL scale (instead of 100 μL) in a 10 mL round-bottom flask, placed in an oil bath, and fitted with a reflux condenser. Aliquots were taken periodically and transferred to a cuvette for UV-Vis spectra acquisition. […]
# [5] = Stopped-flow UV-Vis kinetics of direct association with Th(IV); format: binding; conditions: 5 μM Th, 10-25 equivalents of ligand, 100 mM HEPES (pH 7.4), 5% DMSO; average of four experiments
# Method: The stopped-flow kinetic experiments were performed using a stopped-flow apparatus equipped with an OLis rapid-scanning monochromator 1000 and a 75 W Xe lamp. Upon electronic activation, the apparatus (powered with a gas source, in this case, Ar) mixes 100 μL of each solution in the two syringes into a mixing chamber. This mixture is flowed into a separate chamber, where the flow is stopped and UV spectra are taken. One syringe contained 10 μM Th(IV) in 77.9 mM HNO3 (pH 1.4), while the other held a solution of 50-300 μM ligand, in 200 mM HEPES (pH 8.3) and 10% DMSO. The 1:1 mixture of these solutions was 5 μM Th, 25-150 μM ligand, 100 mM HEPES (pH 7.4). […] The data were analyzed using the program SpecFit to simultaneously use the absorbance at all of the wavelengths to obtain a second-order rate constant.
# The kinetics of the direct association of L with Th(IV) have been elusive thus far due to the presence of various species in solution (as the metal ion can hydrolyze to form various species such as Th(OH)^3+, Th(OH)2^2+, Th4(OH)12^4+, and Th(OH)4, and L has many protonation states) and the small spectral change upon complexation. […] However, UV-Vis kinetics experiments using a stopped-flow apparatus and more intense light source enabled a direct and quantitative assessment of the complexation. […]
# [6] = 1 μM metal, 10 μM ligand, pH 7.4
compound,measurement,setting,value
"CNC(=O)c1ccc(C(=O)NCCCN(CCCCN(CCCNC(=O)c2ccc(C(=O)NC)c(O)c2O)C(=O)c2ccc(C(=O)NC)c(O)c2O)C(=O)c2ccc(C(=O)NC)c(O)c2O)c(O)c1O [3,4,3-LiMeTAM]",pM value (negative logarithm of the free metal concentration),[1]; [6],39.2
same,log β110 (cumulative stability constant) with Th(IV),[1],56.1
CC(=O)CC(C)=O [Acac],Log K1 with thorium(IV),[2],7.85
O=C(O)CN(CCN(CC(=O)O)CC(=O)O)CCN(CC(=O)O)CC(=O)O [DTPA],Log K1 with thorium(IV),[2],30.34
same,log β110 with Th,[2],28.78
same,log β111 with Th,[2],30.94
same,log β011,[3],10.45
same,log β012,[3],18.98
same,log β013,[3],23.26
same,log β014,[3],25.91
same,log β015,[3],27.73
O=C(O)CN(CCN(CC(=O)O)CC(=O)O)CC(=O)O [EDTA],Log K1 with thorium(IV),[2],25.3
same,log β110 with Th,[2],23.2
same,log β111 with Th,[2],25.18
same,log β011,[3],10.17
same,log β012,[3],16.28
same,log β013,[3],18.96
same,log β014,[3],22.46
same,log β015,[3],22.46
O=C(O)CN(CCO)CCN(CC(=O)O)CC(=O)O [HEDTA],Log K1 with thorium(IV),[2],18.5
O=C(O)CN(CC(=O)O)CC(=O)O [NTA],Log K1 with thorium(IV),[2],16.9
O=C(O)CN(CCN(CCN(CC(=O)O)CC(=O)O)CC(=O)O)CCN(CC(=O)O)CC(=O)O [TTHA],Log K1 with thorium(IV),[2],31.9
"COCCNC(=O)c1ccc(C(=O)NCCN2CCNC(=O)c3ccc(c(O)c3O)C(=O)NCCN(CCNC(=O)c3ccc(C(=O)NCCOC)c(O)c3O)CCNC(=O)c3ccc(c(O)c3O)C(=O)NCC2)c(O)c1O [phi(2,2)moeTAM, Tren2TAM2[TAM(OMeEtN)]2]",rate of Th(IV) complexation greater than those of DOTA and DTPA,[4],1-2 orders of magnitudes
same,second-order rate constant of complexation of Th(IV),[5],1.6(3)×10^4 M^−1 s^−1
same,pM value (negative logarithm of the free metal concentration),[1]; [6],40.2
same,pM greater than the pM value for DTPA,"[1]; 1 μM metal, 10 μM ligand, pH 7.4, relative to DTPA",14 orders of magnitude
same,pM greater than the pM value for ethyl-TAM,"[1]; 1 μM metal, 10 μM ligand, pH 7.4, relative to ethyl-TAM",21 orders of magnitude
same,log β110 (cumulative stability constant) with Th(IV),[1],53.7(5)
same,log β110 greater than that of DTPA,[1]; relative to DTPA (28.78),over 24 orders of magnitude
